In patent US11938121B2, “Treatment of infections and biofilm formation using a cellulose synthase inhibitor” (Purdue Research Foundation, priority 2020, dated 2024):

System: rice (Oryza sativa)
Assay: Rice seedling root growth
Assay type: in vivo
Conditions: 20 μM
Source text: ES20 has broad spectrum inhibitory effect on the growth of both dicotyledonous and monocotyledonous plants (Huang and Zhang, Plant Signal Behav. 2020, 15, 1780039). We tested whether ES20-1 has stronger inhibitory effect on the growth of monocotyledon plants than ES20. We grew rice (Oryza sativa) and maize (Zea mays) seedlings on the same concentrations of ES20 and ES20-1 and compared their effects on growth.

SMILES: Cc1ccccc1C(=O)NNC(=S)NC(=O)c1ccccc1 [ES20-1]
- rice root growth inhibition (6-day-old seedlings): could inhibit the root growth
- degree of rice root growth inhibition compared with ES20 (same dosage): much stronger than that of the same dosage of ES20
